Source: ChEMBL document CHEMBL5463729, “Data for DCP probe BAY 1753011” (2023)

Columns and labels:
[1] = molecular target: Cannabinoid receptor 1 (Homo sapiens) (UniProt P21554); test: Inhibition of Cannabinoid CB1 at compound concentration of 10.0 uM in the Eurofins-Panlabs radioligand binding assay (Eurofins_assay_217050); parameters: ligand concentration 2 nM; conditions: Compound concentration 10.0 uM
[2] = molecular target: Progesterone receptor (Homo sapiens) (UniProt P06401); conditions: Compound concentration 10.0 uM
Progesterone receptor (Homo sapiens), sequence (P06401 whole entry): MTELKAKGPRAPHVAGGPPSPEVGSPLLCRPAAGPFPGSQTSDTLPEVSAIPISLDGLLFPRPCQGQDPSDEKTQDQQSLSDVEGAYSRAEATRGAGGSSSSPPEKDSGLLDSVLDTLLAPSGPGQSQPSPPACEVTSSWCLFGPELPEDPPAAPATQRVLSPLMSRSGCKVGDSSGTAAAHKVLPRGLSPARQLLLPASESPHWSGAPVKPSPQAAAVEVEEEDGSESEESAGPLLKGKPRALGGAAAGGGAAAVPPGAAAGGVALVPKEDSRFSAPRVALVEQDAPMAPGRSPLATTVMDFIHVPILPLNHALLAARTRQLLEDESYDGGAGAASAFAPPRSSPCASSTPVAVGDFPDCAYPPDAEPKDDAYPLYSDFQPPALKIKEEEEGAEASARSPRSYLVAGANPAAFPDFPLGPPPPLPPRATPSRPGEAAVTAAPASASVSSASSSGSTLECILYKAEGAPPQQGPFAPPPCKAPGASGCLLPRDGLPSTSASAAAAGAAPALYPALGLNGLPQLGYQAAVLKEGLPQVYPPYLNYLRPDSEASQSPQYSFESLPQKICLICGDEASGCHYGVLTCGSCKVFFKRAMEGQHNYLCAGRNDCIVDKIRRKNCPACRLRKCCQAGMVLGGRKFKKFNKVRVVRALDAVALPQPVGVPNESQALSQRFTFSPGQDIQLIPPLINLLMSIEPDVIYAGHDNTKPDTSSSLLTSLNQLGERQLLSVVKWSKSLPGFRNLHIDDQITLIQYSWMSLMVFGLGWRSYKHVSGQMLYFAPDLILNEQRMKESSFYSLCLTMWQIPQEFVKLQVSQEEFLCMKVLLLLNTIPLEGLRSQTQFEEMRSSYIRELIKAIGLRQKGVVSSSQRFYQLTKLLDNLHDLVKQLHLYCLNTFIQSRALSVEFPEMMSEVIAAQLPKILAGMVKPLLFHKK

[3] = molecular target: Calcium/calmodulin-dependent protein kinase type II subunit delta (Homo sapiens) (UniProt Q13557); test: Inhibition of CaMKIIdelta(h) at 10.0 µM in the Eurofins Kinase panel; conditions: Compound concentration 10.0 uM
[4] = molecular target: STE20/SPS1-related proline-alanine-rich protein kinase (Homo sapiens) (UniProt Q9UEW8); test: Inhibition of STK39(h) at 10.0 µM in the Eurofins Kinase panel; conditions: Compound concentration 10.0 uM
[5] = molecular target: Citron Rho-interacting kinase (Homo sapiens) (UniProt O14578); test: Inhibition of CRIK(h) at 10.0 µM in the Eurofins Kinase panel; conditions: Compound concentration 10.0 uM
Citron Rho-interacting kinase (Homo sapiens), sequence (O14578 whole entry): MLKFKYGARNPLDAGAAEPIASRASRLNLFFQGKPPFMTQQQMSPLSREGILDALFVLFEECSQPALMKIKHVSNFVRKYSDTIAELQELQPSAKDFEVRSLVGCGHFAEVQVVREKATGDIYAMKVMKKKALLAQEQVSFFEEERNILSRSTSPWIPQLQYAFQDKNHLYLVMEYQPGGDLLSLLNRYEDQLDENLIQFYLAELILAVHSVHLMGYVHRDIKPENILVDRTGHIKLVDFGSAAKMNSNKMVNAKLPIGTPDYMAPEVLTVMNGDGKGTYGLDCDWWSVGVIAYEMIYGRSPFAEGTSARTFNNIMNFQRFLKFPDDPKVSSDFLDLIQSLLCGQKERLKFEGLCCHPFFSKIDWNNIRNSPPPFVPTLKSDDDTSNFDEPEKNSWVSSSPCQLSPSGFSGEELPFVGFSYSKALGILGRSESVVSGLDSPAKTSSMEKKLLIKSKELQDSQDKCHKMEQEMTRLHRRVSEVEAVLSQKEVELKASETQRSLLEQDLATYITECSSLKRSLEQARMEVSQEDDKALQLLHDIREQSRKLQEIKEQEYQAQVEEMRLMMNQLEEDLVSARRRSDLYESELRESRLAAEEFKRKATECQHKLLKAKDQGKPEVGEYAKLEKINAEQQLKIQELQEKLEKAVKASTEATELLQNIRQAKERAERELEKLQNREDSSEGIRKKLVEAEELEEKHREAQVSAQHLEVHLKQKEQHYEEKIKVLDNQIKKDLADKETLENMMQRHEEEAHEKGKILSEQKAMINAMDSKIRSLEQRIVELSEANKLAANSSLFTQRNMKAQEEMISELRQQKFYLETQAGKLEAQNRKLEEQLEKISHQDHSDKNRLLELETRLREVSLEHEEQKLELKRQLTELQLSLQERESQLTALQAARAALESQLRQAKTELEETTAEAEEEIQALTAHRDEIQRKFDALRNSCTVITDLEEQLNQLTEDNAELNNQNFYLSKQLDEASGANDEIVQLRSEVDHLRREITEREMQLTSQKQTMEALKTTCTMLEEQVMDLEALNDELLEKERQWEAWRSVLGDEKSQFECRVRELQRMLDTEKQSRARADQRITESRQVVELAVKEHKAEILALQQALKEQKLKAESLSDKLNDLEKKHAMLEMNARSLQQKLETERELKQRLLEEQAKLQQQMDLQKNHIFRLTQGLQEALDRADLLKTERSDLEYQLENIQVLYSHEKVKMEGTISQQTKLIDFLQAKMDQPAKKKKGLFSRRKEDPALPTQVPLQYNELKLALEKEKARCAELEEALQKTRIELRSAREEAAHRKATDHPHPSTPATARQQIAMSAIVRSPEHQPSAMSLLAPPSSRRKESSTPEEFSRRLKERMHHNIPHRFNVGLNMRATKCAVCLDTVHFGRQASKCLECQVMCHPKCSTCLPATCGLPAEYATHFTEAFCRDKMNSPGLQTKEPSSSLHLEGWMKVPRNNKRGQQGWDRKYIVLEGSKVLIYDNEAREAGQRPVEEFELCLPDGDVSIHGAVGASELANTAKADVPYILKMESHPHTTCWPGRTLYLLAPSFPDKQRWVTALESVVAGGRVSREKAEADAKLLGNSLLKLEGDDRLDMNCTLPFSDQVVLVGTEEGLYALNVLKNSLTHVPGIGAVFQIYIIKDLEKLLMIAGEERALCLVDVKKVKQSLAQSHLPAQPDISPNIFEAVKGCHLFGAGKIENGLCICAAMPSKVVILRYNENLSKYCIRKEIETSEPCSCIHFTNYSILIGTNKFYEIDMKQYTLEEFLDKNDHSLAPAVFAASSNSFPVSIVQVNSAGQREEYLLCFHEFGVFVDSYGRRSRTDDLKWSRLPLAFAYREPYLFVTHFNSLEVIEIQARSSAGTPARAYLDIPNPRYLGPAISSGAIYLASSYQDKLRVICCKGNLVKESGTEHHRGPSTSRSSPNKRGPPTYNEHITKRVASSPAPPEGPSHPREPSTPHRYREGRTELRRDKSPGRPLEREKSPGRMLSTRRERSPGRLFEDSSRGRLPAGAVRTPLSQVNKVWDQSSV

Rattus norvegicus = organism: Rattus norvegicus; conditions: Compound concentration 10.0 uM
[6] = molecular target: T1, Alpha-1D adrenergic receptor (Homo sapiens) (UniProt P25100); test: Inhibition of Adrenergic alpha1D at 10 µM in the Eurofins-Panlabs radioligand binding assay (Eurofins_assay_203400); conditions: Compound concentration 10.0 uM
T1 sequence (whole entry): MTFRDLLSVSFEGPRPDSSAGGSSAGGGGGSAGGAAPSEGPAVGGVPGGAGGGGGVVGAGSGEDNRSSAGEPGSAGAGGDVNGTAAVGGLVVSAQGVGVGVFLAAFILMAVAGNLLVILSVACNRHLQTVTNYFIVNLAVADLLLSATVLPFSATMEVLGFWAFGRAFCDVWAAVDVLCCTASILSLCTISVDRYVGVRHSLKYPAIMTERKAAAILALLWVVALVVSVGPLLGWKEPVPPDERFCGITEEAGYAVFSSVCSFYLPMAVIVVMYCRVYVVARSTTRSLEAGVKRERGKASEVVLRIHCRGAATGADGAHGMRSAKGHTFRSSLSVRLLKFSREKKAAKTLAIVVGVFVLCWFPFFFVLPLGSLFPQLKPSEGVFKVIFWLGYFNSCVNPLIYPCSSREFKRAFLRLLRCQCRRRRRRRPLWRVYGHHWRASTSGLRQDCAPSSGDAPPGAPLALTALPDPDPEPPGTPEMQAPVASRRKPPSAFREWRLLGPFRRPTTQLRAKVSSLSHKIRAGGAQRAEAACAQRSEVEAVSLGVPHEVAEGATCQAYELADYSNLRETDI

[7] = molecular target: GABA-A receptor; anion channel; test: GPCRScan assay: inhibition of GABAA/BZP; assay type: protein-complex assay, Rattus norvegicus; parameters: radioligand conc. used [nm] 0.6 – 4.0, parental cells brain tissue
Caspase-1 (Homo sapiens) = Caspase-1 (Homo sapiens) (UniProt P29466); test: Inhibition of Peptidase, CASP1 (Caspase 1) at 10 µM in the Eurofins-Panlabs enzyme assay (Eurofins_assay_163000); conditions: Compound concentration 10.0 uM
[8] = molecular target: Tyrosine-protein kinase Lck (Homo sapiens) (UniProt P06239); test: Inhibition of Protein Tyrosine Kinase, LCK at 10 µM in the Eurofins-Panlabs enzyme assay (Eurofins_assay_176020); conditions: Compound concentration 10.0 uM
Tyrosine-protein kinase Lck (Homo sapiens), sequence (P06239 2-509 limits assumed): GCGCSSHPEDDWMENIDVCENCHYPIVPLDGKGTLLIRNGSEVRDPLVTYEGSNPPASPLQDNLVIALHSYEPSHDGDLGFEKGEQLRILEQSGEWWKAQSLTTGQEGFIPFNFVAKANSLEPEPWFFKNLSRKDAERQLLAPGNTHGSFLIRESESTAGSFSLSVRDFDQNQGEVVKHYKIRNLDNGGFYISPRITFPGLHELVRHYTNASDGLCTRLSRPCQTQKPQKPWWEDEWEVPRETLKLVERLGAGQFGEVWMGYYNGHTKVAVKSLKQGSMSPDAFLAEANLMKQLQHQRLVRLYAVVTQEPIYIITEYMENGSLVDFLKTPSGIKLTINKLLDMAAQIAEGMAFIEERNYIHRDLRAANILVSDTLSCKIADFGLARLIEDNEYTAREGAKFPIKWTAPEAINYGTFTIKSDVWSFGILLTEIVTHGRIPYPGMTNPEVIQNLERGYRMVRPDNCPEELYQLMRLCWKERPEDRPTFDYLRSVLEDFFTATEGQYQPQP

[9] = molecular target: Carbonic anhydrase 2 (Homo sapiens) (UniProt P00918); test: Inhibition of Carbonic Anhydrase II at compound concentration of 10.0 uM in the Eurofins-Panlabs enzyme assay (Eurofins_assay_112020); parameters: substrate with concentration; conditions: Compound concentration 10.0 uM
[10] = molecular target: mTOR/FKBP12A/FKBP12B (Homo sapiens) (UniProt P62942+P68106+P42345); test: Inhibition of mTOR FKBP12(h) at 10.0 µM in the Eurofins Kinase panel; assay type: protein-complex assay; conditions: Compound concentration 10.0 uM
mTOR/FKBP12A/FKBP12B (Homo sapiens), sequence (P62942 2-108 limits assumed, other chains not shown): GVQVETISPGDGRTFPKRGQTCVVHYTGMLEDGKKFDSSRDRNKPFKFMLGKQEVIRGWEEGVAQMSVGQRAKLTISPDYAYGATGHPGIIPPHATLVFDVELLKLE
mTOR/FKBP12A/FKBP12B (Homo sapiens), sequence (P68106 whole entry partner, other chains not shown): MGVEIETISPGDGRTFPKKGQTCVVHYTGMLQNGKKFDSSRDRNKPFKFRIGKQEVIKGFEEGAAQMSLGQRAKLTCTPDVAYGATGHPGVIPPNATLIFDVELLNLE

[11] = molecular target: Substance-P receptor (Homo sapiens) (UniProt P25103); test: Inhibition of Tachykinin NK1 at 10 µM in the Eurofins-Panlabs radioligand binding assay (Eurofins_assay_255520); parameters: ligand concentration 0.8 nM; conditions: Compound concentration 10.0 uM
[12] = molecular target: T2, Muscarinic acetylcholine receptor M5 (Homo sapiens) (UniProt P08912); test: Inhibition of Muscarinic M5 at 10 µM in the Eurofins-Panlabs radioligand binding assay (Eurofins_assay_253010); parameters: ligand concentration 0.8 nM; conditions: Compound concentration 10.0 uM
T2 sequence (whole entry): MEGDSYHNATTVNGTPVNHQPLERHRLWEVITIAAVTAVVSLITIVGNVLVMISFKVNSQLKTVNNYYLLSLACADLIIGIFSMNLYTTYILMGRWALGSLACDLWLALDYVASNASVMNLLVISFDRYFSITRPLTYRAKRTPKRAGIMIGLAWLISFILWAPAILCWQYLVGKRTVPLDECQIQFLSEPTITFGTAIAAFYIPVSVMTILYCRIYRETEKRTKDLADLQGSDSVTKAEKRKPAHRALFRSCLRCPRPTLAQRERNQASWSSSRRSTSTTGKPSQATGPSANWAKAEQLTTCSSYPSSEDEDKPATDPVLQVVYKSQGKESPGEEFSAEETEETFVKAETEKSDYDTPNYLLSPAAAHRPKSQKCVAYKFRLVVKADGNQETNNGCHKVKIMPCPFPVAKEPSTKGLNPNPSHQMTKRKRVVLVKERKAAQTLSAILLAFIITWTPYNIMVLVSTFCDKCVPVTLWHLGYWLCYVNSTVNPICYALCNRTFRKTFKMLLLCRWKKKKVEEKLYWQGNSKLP

[13] = molecular target: Tyrosine-protein kinase Fer (Homo sapiens) (UniProt P16591); test: Inhibition of Fer(h) at 10.0 µM in the Eurofins Kinase panel; conditions: Compound concentration 10.0 uM
[14] = molecular target: C-X-C chemokine receptor type 2 (Homo sapiens) (UniProt P25025); test: Inhibition of Chemokine CXCR2 (IL-8RB) at 10 µM in the Eurofins-Panlabs radioligand binding assay (Eurofins_assay_244500); conditions: Compound concentration 10.0 uM
C-X-C chemokine receptor type 2 (Homo sapiens), sequence (P25025 whole entry): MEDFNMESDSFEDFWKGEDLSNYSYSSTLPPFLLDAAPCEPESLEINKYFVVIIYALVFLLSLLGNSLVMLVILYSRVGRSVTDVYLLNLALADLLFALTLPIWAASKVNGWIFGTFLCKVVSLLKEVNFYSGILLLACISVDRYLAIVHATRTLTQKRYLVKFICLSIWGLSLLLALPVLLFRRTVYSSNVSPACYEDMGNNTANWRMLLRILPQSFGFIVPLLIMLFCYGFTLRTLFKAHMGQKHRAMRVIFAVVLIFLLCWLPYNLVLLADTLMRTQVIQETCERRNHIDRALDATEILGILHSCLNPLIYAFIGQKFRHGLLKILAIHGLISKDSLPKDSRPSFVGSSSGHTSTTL

[15] = molecular target: Mitogen-activated protein kinase 3 (Homo sapiens) (UniProt P27361); test: Inhibition of Protein Serine/Threonine Kinase, MAPK3 (ERK1) at 10 µM in the Eurofins-Panlabs enzyme assay (Eurofins_assay_171000); conditions: Compound concentration 10.0 uM
Mitogen-activated protein kinase 3 (Homo sapiens), sequence (P27361 whole entry): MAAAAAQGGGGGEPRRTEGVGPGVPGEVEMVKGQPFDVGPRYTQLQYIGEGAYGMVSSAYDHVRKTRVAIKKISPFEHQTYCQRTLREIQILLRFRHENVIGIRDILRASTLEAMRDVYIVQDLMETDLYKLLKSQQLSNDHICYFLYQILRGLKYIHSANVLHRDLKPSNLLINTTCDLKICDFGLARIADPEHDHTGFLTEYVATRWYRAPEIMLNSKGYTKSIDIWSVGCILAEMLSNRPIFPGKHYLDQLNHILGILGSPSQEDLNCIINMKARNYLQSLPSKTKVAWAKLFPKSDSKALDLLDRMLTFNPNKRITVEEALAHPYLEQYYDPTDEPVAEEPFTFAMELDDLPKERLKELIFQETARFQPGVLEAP

[16] = molecular target: Progesterone receptor (Homo sapiens) (UniProt P06401); test: Inhibition of Progesterone PR-B at 10 µM in the Eurofins-Panlabs radioligand binding assay (Eurofins_assay_268020); parameters: ligand concentration 1.4 nM; conditions: Compound concentration 10.0 uM
[17] = molecular target: T3, Muscarinic acetylcholine receptor M1 (Homo sapiens) (UniProt P11229); conditions: Compound concentration 10.0 uM
T3 sequence (whole entry): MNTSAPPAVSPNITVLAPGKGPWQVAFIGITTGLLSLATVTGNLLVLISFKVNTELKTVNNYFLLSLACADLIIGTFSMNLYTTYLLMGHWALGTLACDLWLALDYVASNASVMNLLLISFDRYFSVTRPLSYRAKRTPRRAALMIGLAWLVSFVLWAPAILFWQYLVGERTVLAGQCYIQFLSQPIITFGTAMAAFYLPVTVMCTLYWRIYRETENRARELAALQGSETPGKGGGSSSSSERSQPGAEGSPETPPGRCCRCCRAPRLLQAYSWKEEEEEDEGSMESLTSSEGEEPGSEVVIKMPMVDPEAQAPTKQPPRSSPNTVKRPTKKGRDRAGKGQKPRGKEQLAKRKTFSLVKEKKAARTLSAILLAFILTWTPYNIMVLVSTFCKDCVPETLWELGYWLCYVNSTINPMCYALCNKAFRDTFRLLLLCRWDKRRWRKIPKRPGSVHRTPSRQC

Cannabinoid receptor 1 (Homo sapiens), sequence (P21554 whole entry): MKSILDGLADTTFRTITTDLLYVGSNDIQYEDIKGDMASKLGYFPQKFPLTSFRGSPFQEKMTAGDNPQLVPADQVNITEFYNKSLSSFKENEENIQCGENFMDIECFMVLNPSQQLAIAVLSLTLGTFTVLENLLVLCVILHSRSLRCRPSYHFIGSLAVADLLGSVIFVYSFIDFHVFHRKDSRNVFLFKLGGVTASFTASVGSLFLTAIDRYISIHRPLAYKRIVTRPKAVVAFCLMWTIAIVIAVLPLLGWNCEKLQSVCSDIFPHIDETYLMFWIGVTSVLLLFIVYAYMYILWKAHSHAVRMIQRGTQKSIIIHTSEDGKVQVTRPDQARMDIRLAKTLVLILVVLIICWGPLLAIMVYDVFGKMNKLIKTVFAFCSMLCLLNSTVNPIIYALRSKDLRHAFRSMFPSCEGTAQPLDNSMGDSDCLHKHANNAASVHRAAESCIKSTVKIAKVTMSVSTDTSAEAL

Compound	inhibition [1]	inhibition [2]	inhibition [3]	inhibition [4]	inhibition [5]	inhibition (Rattus norvegicus)	inhibition [6]	Ki [7]	pKi [7]	inhibition (Caspase-1 (Homo sapiens))	inhibition [8]	inhibition [9]	inhibition [10]	inhibition [11]	inhibition [12]	inhibition [13]	inhibition [14]	inhibition [15]	inhibition [16]	inhibition [17]
O=c1n(Cc2cncn2-c2cccc(Cl)c2)nc(-c2ccc(Cl)cc2)n1C[C@H](O)C(F)(F)F	19%	25%	-4.39%	-4.72%	-2.08%	-0.38%	–	–	–	–	–	–	–	–	–	–	–	–	–	–
C[C@H](O)c1nc(Cn2nc(-c3ccc(Cl)cc3)n(C[C@H](O)C(F)(F)F)c2=O)nn1-c1cccc(Cl)c1 [PECAVAPTAN]	–	–	–	–	–	–	1%	2610 nM	5.58	0%	-9%	-4%	2.46%	20%	6%	-2.1%	-6%	-7%	0%	4.34%
